In article PMC4154469, “Extracellular gentamicin reduces the activity of connexin hemichannels and interferes with purinergic Ca^2+ signaling in HeLa cells” (Frontiers in Cellular Neuroscience, 2014):

Columns and labels:
[1] = molecular target: T1, connexin45 (mCx45) hemichannel (Mus musculus, UniProt P28229); experiment: ethidium uptake in HeLa-mCx45 cells, […] streptomycin; format: cell-based
T1 construct: gene Gjc1; mouse Cx45 (NM_001159383.1) stably expressed in HeLa cells

[2] = molecular target: T2, connexin43 (mCx43) hemichannel (Mus musculus, UniProt P23242); experiment: ethidium uptake in HeLa-mCx43 cells, […] streptomycin; format: cell-based
T2 construct: gene Gja1; mouse Cx43 (NM_010288.3) stably expressed in HeLa cells
T2 sequence (P23242 2-382): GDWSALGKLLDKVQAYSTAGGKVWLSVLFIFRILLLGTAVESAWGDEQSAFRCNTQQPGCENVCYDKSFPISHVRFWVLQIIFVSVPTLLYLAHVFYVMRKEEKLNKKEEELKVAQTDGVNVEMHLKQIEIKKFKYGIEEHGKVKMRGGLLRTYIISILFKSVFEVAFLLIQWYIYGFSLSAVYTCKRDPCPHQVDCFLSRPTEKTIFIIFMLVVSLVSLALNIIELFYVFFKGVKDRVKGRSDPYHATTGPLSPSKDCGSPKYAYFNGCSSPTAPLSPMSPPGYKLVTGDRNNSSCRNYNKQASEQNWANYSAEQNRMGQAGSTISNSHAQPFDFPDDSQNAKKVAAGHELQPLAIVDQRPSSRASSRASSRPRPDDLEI

T1 sequence (P28229 whole entry): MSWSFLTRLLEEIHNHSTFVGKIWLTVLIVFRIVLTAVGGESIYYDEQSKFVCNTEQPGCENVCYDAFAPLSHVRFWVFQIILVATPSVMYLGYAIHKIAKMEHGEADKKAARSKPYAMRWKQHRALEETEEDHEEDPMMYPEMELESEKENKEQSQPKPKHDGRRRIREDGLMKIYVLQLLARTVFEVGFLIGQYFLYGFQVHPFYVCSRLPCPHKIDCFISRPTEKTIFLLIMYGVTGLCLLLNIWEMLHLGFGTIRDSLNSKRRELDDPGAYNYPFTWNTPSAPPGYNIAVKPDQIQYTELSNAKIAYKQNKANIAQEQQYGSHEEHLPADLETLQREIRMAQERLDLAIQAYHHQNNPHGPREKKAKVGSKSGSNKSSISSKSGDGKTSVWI

[H]/N=C(/N)N[C@H]1[C@H](O)[C@@H](O)[C@H](O[C@@H]2O[C@@H](C)[C@](O)(C=O)[C@H]2O[C@@H]2O[C@@H](CO)[C@H](O)[C@@H](O)[C@@H]2NC)[C@@H](N/C(N)=N\[H])[C@@H]1O [streptomycin]
ethidium uptake in HeLa-mCx45 cells, 200 μM streptomycin [1]: In HeLa-mCx45 cells, Etd uptake was reduced to values below the ones recorded under control condition
ethidium uptake in HeLa-mCx43 cells, 200 μM streptomycin [2]: also inhibited the Etd uptake of HeLa-rCx26 (Figures 2E,F), -mCx43 and -mCx45 cells in DCFS
